Measured values reported in patent publication US8119667B2, “Carbonates of fenicol antibiotics” (Schering-Plough Animal Health Corporation, priority 2005, dated 2012).
Like-named read-outs stand apart in the source and are kept apart here.

Assays:
[1] = Solubility in triacetin/benzyl alcohol 2:1 (volume/volume) solvent mixture; type: physicochemical; details: 20° C.
Description: Florfenicol parent drug was not soluble in triacetin/benzyl alcohol 2:1 (volume/volume) even at concentrations as low as 10% (weight/volume). […] The combination of prodrug of Example 14 at 275 mg/ml and florfenicol at 100 mg/ml was soluble in triacetin/benzyl alcohol 2:1 (volume/volume) and provided a stable solution with 30% (weight/volume) content of florfenicol (Table 4, supra, entry 12).

[2] = In vivo release of florfenicol: plasma levels after prodrug administration to cattle; details: for AUC: bovine, plasma, sc, 40 mg/kg
Description: The pharmacokinetic profile of active antibiotic after prodrug administration, in vivo, was determined, as follows: • 1. In vivo release of active antibiotic confirmed in two different animal species: • The prodrug compound of Example 18 was administered by an intravenous (“IV”) route to rat and cattle subjects, followed by determination of florfenicol concentrations in the plasma collected over time. • The data of Table 8, below, illustrates the plasma levels of florfenicol that resulted following IV administration of the prodrug compound of Example 18, to both rat and cattle. • 2. Active antibiotic is released from the prodrug irrespective of route of administration of the prodrug: • The data of Table 9, below, illustrates the plasma levels of florfenicol that resulted following administration of the prodrug compound of Example 2, by two different routes, i.e., IV and subcutaneous (“SC”). • 3. A dose-dependant increase in the release of active moiety: • The data of table 10, below, confirms a dose-dependent increase in the plasma levels of active antibiotic (florfenicol) following administration of rising doses of prodrug compound of Example 2. • 4. Time of release of active moiety: • a. […] The data of tables 13 and 14, below, confirms that the active antibiotic is quickly released from the prodrug compound of Example 2, when administered by the IV and SC routes in cattle. The release kinetics of the compound of Example 2 were compared with administration in a formulation with a triacetin/benzyl alcohol (ratio of 2:1 wt/vol) and with administration in a formulation of triacetin/2-pyrrolidinone (ratio of 2:1 wt/vol). The study was conducted in cattle (n=3).

[3] = tested on: naturally occurring bovine respiratory disease (BRD); assay: Therapeutic efficacy of a single SC dose in cattle with naturally occurring bovine respiratory disease; type: in vivo
Excerpt: Therapeutic efficacy of a single dose of Nuflor® (Schering-Plough Animal Health) was compared with a single dose of the prodrug compound of Example 2 after SC administration in cattle suffering from naturally occurring bovine respiratory disease (BRD).

**Q.** Which “Solubility at selected concentration of contained florfenicol” value (from here on “Solubility at selected concentration”) ([1]; 10% weight/volume florfenicol) does the source give for `CCOC(=O)O[C@H](c1ccc(S(C)(=O)=O)cc1)[C@@H](CF)NC(=O)C(Cl)Cl` [Example 2, (1R,2S)-2-(2,2-dichloroacetamido)-3-fluoro-1-(4-(methylsulfonyl)phenyl)propyl ethyl carbonate] here?
**A.** soluble

**Q.** And the “Solubility at selected concentration” value ([1]; 20% weight/volume florfenicol)?
**A.** soluble

**Q.** And the “Solubility at selected concentration” value ([1]; 25% weight/volume florfenicol)?
**A.** soluble

**Q.** And the “Solubility at selected concentration” value ([1]; 30% weight/volume florfenicol)?
**A.** soluble

**Q.** What about the “Solubility at selected concentration” value ([1]; 35% weight/volume florfenicol) of the same molecule?
**A.** soluble

**Q.** What about the “Solubility at selected concentration” value ([1]; 37% weight/volume florfenicol) of the same molecule?
**A.** soluble

**Q.** What about the “Solubility at selected concentration” value ([1]; 40% weight/volume florfenicol) of the same molecule?
**A.** insoluble

**Q.** And the “time of release of active antibiotic (florfenicol) after administration” value ([2]; IV)?
**A.** less than half an hour

**Q.** And the AUC ([2]; subcutaneous administration, read-out: Total Average AUC of the compound of Example 2 (unchanged prodrug))?
**A.** 38000 ng·h/mL

**Q.** What about the AUC ([2]; subcutaneous administration, read-out: Total Average AUC of the compound of Example 2 as Florfenicol Equivalent) of the same molecule?
**A.** 30400 ng·h/mL

**Q.** What about the “converted to Florfenicol once absorbed from SC site” value ([2]; subcutaneous administration) of the same molecule?
**A.** 83.5%

**Q.** And the “Treatment Failure (on day 10)” value ([3]; single S/C dose equivalent to 40 mg/kg of florfenicol (Nuflor 40 mg/kg; Example 2 48 mg/kg), animals failing out of animals treated)?
**A.** 5 out of 24

**Q.** What about the “Temp. (day 0)” value ([3]; single S/C dose equivalent to 40 mg/kg of florfenicol (Nuflor 40 mg/kg; Example 2 48 mg/kg), day 0) of the same molecule?
**A.** 40.4 °C

**Q.** What about the “Temp. (day 3)” value ([3]; single S/C dose equivalent to 40 mg/kg of florfenicol (Nuflor 40 mg/kg; Example 2 48 mg/kg), day 3) of the same molecule?
**A.** 38.8 °C

**Q.** And the “Temp. (day 10)” value ([3]; single S/C dose equivalent to 40 mg/kg of florfenicol (Nuflor 40 mg/kg; Example 2 48 mg/kg), day 10)?
**A.** 38.7 °C

**Q.** And the “efficacy compared with Nuflor” value ([3]; single SC dose, cattle with BRD)?
**A.** comparable

**Q.** And the melting point?
**A.** 110 to 112 °C
